# Experimental data as given in patent US20220411480A1, “ANTITUMOR PEPTIDE AND USE THEREOF” (TOAGOSEI CO., LTD, priority 2018, published 2022).
# Residues, ends and D or L forms follow the SMILES beside them.
# Key:
# [1] = Antitumor activity evaluation test (1), cell viability by Cell Counting Kit-8 (WST-8); type: cell-based, human; conditions: peptide 25 μM, 48 hours, relative to culture medium containing no peptide = 100%; read-out: A2058 cell viability (survival rate)
# Protocol: (§1) The antitumor activity of the sample peptides synthesized in Test Example 1 was evaluated using human-derived cultured tumor cells as targets.
# (§2) Specifically, currently commercially available human melanoma (A2058) cell lines were used as test tumor cells. In addition, a normal human mammary epithelial cell culture line (MCF-12F) was used for comparison. Here, culture solutions of respective cells are as follows. • (1) A2058 cells:
# (§3) DMEM culture medium including 2 mM L-glutamine, 0.1 mM of non-essential amino acids, 50 units/mL of penicillin, 50 μg/mL of streptomycin, and 10% fetal bovine serum (FBS) (product, commercially available from Wako Pure Chemical Industries, Ltd.). • (2) MCF-12F cells:
# (§4) DMEM/F12 culture medium including 20 ng/mL of recombinant EGF, 10 μg/mL of insulin, 0.5 μg/mL of hydrocortisone, and 10% FBS (product, commercially available from Wako Pure Chemical Industries, Ltd.).
# (§5) A2058 cells and MCF-12F cells were cultured and prepared so that the number of cells per well in a 96-well plate was about 5×10^3. An amount of the culture medium in this case was 100 μL per well.
# (§6) Next, the 96-well plate was placed in a CO2 incubator and pre-incubated under conditions of 37° C. and 5% CO2 for about 1 day (21 hours to 24 hours).
# (§7) Then, peptide-containing test culture mediums for each concentration were prepared so that the concentrations of the sample peptides to be evaluated were 12.5 μM and 25 μM, and supplied to wells (that is, wells after the pre-incubation) in which 90μL of cells to be evaluated were cultured in each well. Then, the 96-well plate was returned to the CO2 incubator and incubated under conditions of 37° C. and 5% CO2 for 48 hours.
# (§8) Here, the number of test wells (n) at peptide concentrations in peptide addition test groups was set to 3. Therefore, the value of the result shown in the following table is an average value of the results obtained in three test wells. First, the cell viability (%) was determined as follows.
# (§9) After the incubation for 48 hours was completed, the culture medium in each well was replaced with 100 μL of a fresh culture medium containing no peptide, and additionally, 10μL of a cell proliferation measurement reagent “Cell Counting Kit-8” (product, commercially available from Dojindo Molecular Technologies, Inc.) containing a “water-soluble tetrazolium salt (WST-8)” as a coloring reagent was added to each well. Then, the 96-well plate was returned to the CO2 incubator and incubated under conditions of 37° C., and 5% CO2 for 1.5 hours to 2 hours.
# (§10) After the incubation was completed, the cell culture solution to which the reagent was added was collected and the cell viability (%) was evaluated according to a colorimetric method in which an absorbance at a wavelength of 450 nm (value corrected by the absorbance at a wavelength of 650 nm: A450-A650) was measured based on the reduction of the tetrazolium salt. Specifically, a measured value (measured absorbance) of a comparative test group in which the above incubation was performed for 48 hours simply in a culture medium containing no peptide was set as a cell viability of 100%, and the cell viability (%) was calculated from the measured absorbance of each test cell line as a relative value.
# (§11) Specifically, a value (value multiplied by 100 for convenience) obtained by dividing the cell viability of target tumor cells (here, A2058 cells) when the sample peptides were added at a concentration of 12.5 μM or 25 μM measured as described above by the cell viability of comparative normal cells (here, MCF-12F cells) measured under the same conditions, that is,
# (§12) {(A2058 cell viability)/(MCF-12F cell viability)}×100 was calculated as a specific cell viability of the tumor cells, and the test tumor cells selective antitumor activity with respect to normal cells was evaluated using such a specific cell viability as an index.
# [2] = tested on: human melanoma (A2058) cell lines; test: as above; type: cell-based; conditions: 48 hours, A2058 versus normal MCF-12F cells
# Protocol: as §1, §2, §3, §4, §5, §6, §7, §8, §9, §10, §11, §12
SMILES,viability [1] [%],Specific cell viability {(A2058 cell viability)/(MCF-12F cell viability)}×100 ([2]; peptide 12.5 μM),Specific cell viability {(A2058 cell viability)/(MCF-12F cell viability)}×100 ([2]; peptide 25 μM)
CSCC[C@H](NC(=O)[C@H](C)N)C(=O)N[C@@H](Cc1ccc(O)cc1)C(=O)N[C@@H](CC(C)C)C(=O)N[C@@H](Cc1ccccc1)C(=O)N[C@@H](CC(C)C)C(=O)NCC(=O)N[C@@H](CC(N)=O)C(=O)N[C@@H](CC(C)C)C(=O)N[C@@H](C)C(=O)N[C@@H](C)C(=O)N[C@@H](CO)C(=O)N[C@@H](CC(=O)O)C(=O)N[C@@H](CC(C)C)C(=O)N[C@@H](CC(C)C)C(=O)N[C@@H](C)C(=O)NCC(=O)N[C@H](C(=O)N[C@@H](C)C(=O)N[C@@H](Cc1ccccc1)C(=O)N[C@H](C(=O)N[C@@H](C)C(=O)N[C@@H](CC(N)=O)C(=O)N[C@H](C(=O)N[C@@H](CC(C)C)C(=O)N[C@@H](CC(C)C)C(=O)N[C@@H](CO)C(=O)NCC(=O)N[C@@H](CO)C(=O)N[C@@H](CCCNC(=N)N)C(=O)N[C@@H](CCCCN)C(=O)N[C@@H](CCCCN)C(=O)N[C@@H](CCCNC(=N)N)C(=O)N[C@@H](CCCNC(=N)N)C(=O)N[C@@H](CCC(N)=O)C(=O)N[C@@H](CCCNC(=N)N)C(=O)N[C@@H](CCCNC(=N)N)C(=O)N[C@@H](CCCNC(=N)N)C(N)=O)[C@@H](C)O)C(C)C)C(C)C [Sample 1] (H-AMYLFLGNLAASDLLAGVAFVANTLLSGSRKKRRQRRR-NH2; N-terminus assumed),0.7,114.85,16.67
CC(C)C[C@H](NC(=O)CNC(=O)[C@H](CCC(=O)O)NC(=O)[C@H](CCCNC(=N)N)NC(=O)[C@H](CC(C)C)NC(=O)[C@H](Cc1ccccc1)NC(=O)[C@@H](N)Cc1c[nH]c2ccccc12)C(=O)N[C@@H](CC(C)C)C(=O)N[C@@H](Cc1ccccc1)C(=O)N[C@H](C(=O)N[C@@H](C)C(=O)N[C@@H](CC(C)C)C(=O)N[C@@H](C)C(=O)N[C@@H](C)C(=O)N[C@@H](CO)C(=O)N[C@H](C(=O)N[C@@H](Cc1ccccc1)C(=O)N[C@@H](CO)C(=O)N[C@@H](CC(C)C)C(=O)N[C@@H](CC(C)C)C(=O)N[C@@H](Cc1ccccc1)C(=O)N[C@@H](CCCNC(=N)N)C(=O)N[C@@H](CCCCN)C(=O)N[C@@H](CCCCN)C(=O)N[C@@H](CCCNC(=N)N)C(=O)N[C@@H](CCCNC(=N)N)C(=O)N[C@@H](CCC(N)=O)C(=O)N[C@@H](CCCNC(=N)N)C(=O)N[C@@H](CCCNC(=N)N)C(=O)N[C@@H](CCCNC(=N)N)C(N)=O)[C@@H](C)O)[C@@H](C)O [Sample 3] (H-WFLREGLLFTALAASTFSLLFRKKRRQRRR-NH2; N-terminus assumed),4.6,68.20,25.41
CC[C@H](C)[C@H](NC(=O)[C@H](Cc1ccccc1)NC(=O)CNC(=O)[C@H](Cc1ccc(O)cc1)NC(=O)[C@@H](N)C(C)C)C(=O)NCC(=O)N[C@@H](CC(C)C)C(=O)N[C@@H](CS)C(=O)N[C@@H](Cc1c[nH]c2ccccc12)C(=O)N[C@@H](CC(C)C)C(=O)N[C@@H](CC(C)C)C(=O)N[C@@H](C)C(=O)N[C@@H](C)C(=O)N[C@@H](CC(C)C)C(=O)N[C@@H](CC(C)C)C(=O)NCC(=O)N[C@@H](CCSC)C(=O)N[C@@H](CC(C)C)C(=O)N1CCC[C@H]1C(=O)N[C@@H](CC(C)C)C(=O)N[C@@H](CC(C)C)C(=O)N[C@@H](CCCNC(=N)N)C(=O)N[C@@H](CCCCN)C(=O)N[C@@H](CCCCN)C(=O)N[C@@H](CCCNC(=N)N)C(=O)N[C@@H](CCCNC(=N)N)C(=O)N[C@@H](CCC(N)=O)C(=O)N[C@@H](CCCNC(=N)N)C(=O)N[C@@H](CCCNC(=N)N)C(=O)N[C@@H](CCCNC(=N)N)C(N)=O [Sample 4] (H-VYGFIGLCWLLAALLGMLPLLRKKRRQRRR-NH2; N-terminus assumed),5.3,46.80,35.10
CC[C@H](C)[C@H](NC(=O)[C@H](C)NC(=O)[C@H](CC(C)C)NC(=O)[C@H](CC(C)C)NC(=O)[C@H](CO)NC(=O)[C@H](CC(C)C)NC(=O)[C@@H](NC(=O)[C@H](CO)NC(=O)[C@H](C)NC(=O)[C@@H](NC(=O)[C@H](CC(C)C)NC(=O)[C@H](C)NC(=O)[C@@H](NC(=O)[C@H](Cc1ccccc1)NC(=O)[C@@H](NC(=O)CNC(=O)CNC(=O)[C@@H](N)CCC(=O)O)C(C)C)C(C)C)[C@@H](C)O)C(C)C)C(=O)N[C@@H](C)C(=O)N[C@@H](CC(C)C)C(=O)N[C@@H](CCC(=O)O)C(=O)N[C@@H](CCCNC(=N)N)C(=O)N[C@@H](CCCCN)C(=O)N[C@@H](CCCCN)C(=O)N[C@@H](CCCNC(=N)N)C(=O)N[C@@H](CCCNC(=N)N)C(=O)N[C@@H](CCC(N)=O)C(=O)N[C@@H](CCCNC(=N)N)C(=O)N[C@@H](CCCNC(=N)N)C(=O)N[C@@H](CCCNC(=N)N)C(N)=O [Sample 5] (H-EGGVFVALTASVLSLLAIALERKKRRQRRR-NH2; N-terminus assumed),5.5,88.08,10.09
